From patent publication US20230263812A1, “Compositions and Methods for Treating COVID-19 and/or Acute Respiratory Failure and/or Acute Respiratory Distress Syndrome Using Tetrahydrocannabinol and Compositions Including Same” (priority 2020, published 2023)
Counter-ions that a name gives are not always drawn. Like-named read-outs stand apart in the source and are kept apart here.

Assays:
[1] = cited from earlier work; for share of the urinary excretion products of fluvoxamine: 5 mg radiolabelled dose of fluvoxamine maleate, fluvoxamine acid value is together with its N-acetylated analog; for bound to plasma protein: mostly albumin, concentration range 20 to 2000 ng/mL
serotonin uptake = conditions: in vitro, rats; cited from earlier work
[2] = cited from earlier work
serotonin reuptake = conditions: in vitro as well as in vivo; cited from earlier work
σ-1 non-opioid receptor = σ-1 non-opioid receptor (Homo sapiens, UniProt Q99720); conditions: cited from earlier work
COVID-19 = assay: Clinical study of oral dronabinol plus standard of care in COVID-19 patients hospitalized for hypoxia; format: in vivo, human; conditions: for LOS: LOS = length of stay (days)
[3] = cited from earlier work; remark: listed apart in the source
norepinephrine reuptake = conditions: in vitro, rats; cited from earlier work

Chain of σ-1 non-opioid receptor (Q99720 whole entry): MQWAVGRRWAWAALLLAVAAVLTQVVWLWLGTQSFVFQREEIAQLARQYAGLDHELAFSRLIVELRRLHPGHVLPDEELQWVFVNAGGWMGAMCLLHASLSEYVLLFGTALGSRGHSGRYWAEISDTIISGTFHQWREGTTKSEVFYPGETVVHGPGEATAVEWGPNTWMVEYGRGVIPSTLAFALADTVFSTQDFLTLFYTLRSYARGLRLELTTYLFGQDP

In the case of `NCCO/N=C(\CCCC(=O)O)c1ccc(C(F)(F)F)cc1` [fluvoxamine acid], the “share of the urinary excretion products of fluvoxamine” value [1] is given as “about 60%” and the “potency on serotonin uptake relative to the parent compound” value (serotonin uptake) is given as 1-2 orders of magnitude less potent.
For `COCCCC/C(=N\OCCN)c1ccc(C(F)(F)F)cc1` [fluvoxamine, 2-[(E)-[5-methoxy-1-[4-(trifluoromethyl)phenyl]pentylidene]amino]oxyethanamine], the “mean apparent volume of distribution” value ([1]; human, in vivo) is given as “approximately 25 L/kg”, the “mean apparent volume of distribution” value ([1]; human, in vivo, listed as Fluvoxamine) is given as 25 L/kg and the “bound to plasma protein” value [1] is given as “Approximately 80%”. The “bound to plasma protein” value ([1]; listed as Fluvoxamine) was 80%, the “decrease in clearance in association with hepatic dysfunction” value ([2]; cross study comparison, healthy subjects versus patients with hepatic dysfunction) was 30% and the “clearance reduced in elderly patients” value ([2]; human, in vivo) was “about 50%”. For the same compound, the serotonin reuptake inhibition (serotonin reuptake) was “potent” and the “agonistic sigma1 binding affinity, rank among agents tested” value (σ-1 non-opioid receptor) was “strongest”.
For `CCCCCc1cc(O)c2c(c1)OC(C)(C)[C@@H]1CCC(C)=C[C@@H]21` [dronabinol, (−)-(6aR,10aR)-6,6,9-trimethyl-3-pentyl-6a,7,8,10a-tetrahydro-6H-benzo[c]-chromen-1-ol], the “survival rate” value (COVID-19; 2.5 mg dronabinol regimen) was 88.9%, the LOS (COVID-19; 2.5 mg dronabinol regimen) was 17.4 and the “# Survived” value (COVID-19; 2.5 mg dronabinol regimen, total 9 in group) was 8. For the same compound, the survival rate (COVID-19; 2.5 mg group (2.5 mg twice orally daily)) was 89%, the “survival rate” value (COVID-19; 5 mg dronabinol regimen) was 94.1% and the LOS (COVID-19; 5 mg dronabinol regimen) was 8.8. For the same compound, the “# Survived” value (COVID-19; 5 mg dronabinol regimen, total 68 in group) was 64, the survival rate (COVID-19; 5 mg treated group (5 mg orally twice daily)) was 93.5% and the survival rate (COVID-19; all dronabinol-treated patients (77), standard of care alone 80%) was 93.5%. For the same compound, the Mortality rate (COVID-19; hospitalized COVID-19 patients requiring oxygen supplementation, 2.5 mg or 5 mg dronabinol orally BID plus standard of care, 77 patients, untreated group 20.5%) was 6.5%, the “average first peak C-reactive protein (CRP) levels, difference” value (COVID-19; lower in the treatment group than untreated, p-value 0.07, not statistically significant) was 14% and the reduction in mortality (COVID-19; treated group (77) versus untreated/control group (44), p-value 0.02) was 68%. The “Length of stay in the hospital” value (COVID-19; treated group, untreated group 15.6 days) was 9.9 days, the “reduction in length of stay” value (COVID-19; treated versus untreated group, p-value 0.01) was 37% and the “time for which low levels of metabolites are detected in the urine and feces” value ([3]; following single dose administration) was “more than 5 weeks”. The “radio-labeled oral dose recovered from the feces within 72 hours” value ([3]; in vivo, po) was “about half”, the “radio-labeled oral dose recovered from urine” value ([3]; in vivo, po) was 10-15% and the “absorbed after single oral doses” value ([3]; oral) was 90-95%. The plasma protein binding ([3]; Δ9-THC and its metabolites) was “approximately 97%”.
In the case of `COCCCC/C(=N\OCCN)c1ccc(C(F)(F)F)cc1` [fluvoxamine maleate], the “effect of food on oral bioavailability” value ([1]; human, in vivo, po) is listed as “not significantly affected by food”.
For `COCCCC/C(=N\OCCO)c1ccc(C(F)(F)F)cc1` [fluvoxamine ethanol], the “share of the urinary excretion products of fluvoxamine” value [1] is listed as “about 10%”, the “inhibition of serotonin uptake” value (serotonin uptake) is listed as “inactive” and the norepinephrine reuptake inhibition (norepinephrine reuptake) is listed as “inactive”.
